Legend:
T-cell [1] = experiment: Inhibition of T cell proliferation was determined using murine splenic mononuclear cells; assay type: functional, cell-based; conditions: Mus musculus
Adenosylhomocysteinase = biological target: T1, Adenosylhomocysteinase (Rattus norvegicus, UniProt P10760); experiment: Tested for binding affinity of compound against S-adenosyl-L-homocysteine hydrolase
T1 sequence (P10760 whole entry): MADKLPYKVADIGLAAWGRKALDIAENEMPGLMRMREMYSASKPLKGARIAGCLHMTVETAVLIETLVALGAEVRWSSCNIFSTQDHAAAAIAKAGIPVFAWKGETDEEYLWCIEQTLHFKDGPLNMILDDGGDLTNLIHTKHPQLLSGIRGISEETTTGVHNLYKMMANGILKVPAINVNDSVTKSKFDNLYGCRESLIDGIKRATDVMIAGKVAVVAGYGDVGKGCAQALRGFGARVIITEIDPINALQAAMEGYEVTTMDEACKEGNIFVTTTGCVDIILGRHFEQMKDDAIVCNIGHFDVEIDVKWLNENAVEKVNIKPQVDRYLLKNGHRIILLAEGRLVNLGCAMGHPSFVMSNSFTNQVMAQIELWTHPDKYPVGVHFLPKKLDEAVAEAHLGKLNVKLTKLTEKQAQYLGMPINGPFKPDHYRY

[2] = biological target: T2, Adenosylhomocysteinase (Rattus norvegicus) (UniProt P10760)
T2 sequence (whole entry): T1 sequence (P10760 whole entry)
Description: Tested for rate constant for inactivation of S-adenosyl-L-homocysteine hydrolase from rat

T-cell [3] = experiment: Tested for inhibition of T cell proliferation; assay type: functional, cell-based; conditions: Mus musculus

Row | Compound | IC50 (T-cell [1]) | Ki (Adenosylhomocysteinase) | K inact [2] | IC50 (T-cell [3])
1 | Nc1ncnc2c1ncn2C1C/C(=C/F)C(O)C1O (stereo not given) | 6.7 µM | 1.1 µM |  | 
2 | Nc1ncnc2c1ncn2C1C/C(=C\F)C(O)C1O (stereo not given) |  | 6.9 µM | 0.18 min⁻¹ | 0.8 µM

Source: ChEMBL document CHEMBL1127177, “(E) and (Z)5-fluoro olefin carbocyclic nucleosides: effect of olefin geometry on inhibition of s-adenosyl-l-homocysteine hydrolase” (Bioorg Med Chem Lett, 1993)
